SMILES strings stand for the structures. Where two headings read alike, the source gives them in different places.

The source of these data is US6936569B2, “Compositions and methods for protecting cultivated plants from herbicidal injury” (priority 1998, dated 2005).

Series [1] concerns ABUTH - velvet-leaf, Abutilon theophrasti Medicus. Kind of series: 1998 field trial: weed control, velvetleaf. The class given is in vivo. The note with it: Table 8: field, 60 DAP. As for the experimental part:
(§1) Conventional tillage experiments were conducted in 1998 to evaluate the influence of SMS and AFS-MTMS, on corn tolerance and weed control from postemergence applications of isoxaflutole alone and in tank-mixture with metolachlor/benoxacor. Experiments were conducted at the Michigan State University Crop and Soil Science Research Farm at East Lansing, Mich. on Capac sandy clay loam soil (fine-loamy, mixed mesic Acric Ochraqualfs) containing 3.1% organic matter with a pH of 6.3 in 1998.
(§2) Tillage consisted of moldboard plowing in the fall prior to spring disking and field cultivation. Prior to spring cultivation, 320 kg/ha of 46-0-0 fertilizer was applied broadcast. At planting, 140 kg/ha of 6-24-24 fertilizer was applied as a banded treatment 5 cm below and 5 cm beside the corn seeds. Pioneer 37R71 corn was planted on May 11, 1998 at a rate of 62,000 seeds/ha. Each plot was 10.6 m long and consisted of 4 rows spaced 76 cm apart. […]
(§3) Corn tolerance was evaluated 30 days after planting (DAP) by visually evaluating plants for bleaching and necrotic symptoms and also by measuring corn height (base of plant to the crown) 40 DAP. Weed control by species was visually evaluated 60 DAP. […] Corn grain yield was determined by harvesting the center two rows of each plot with a plot combine. […]

The subject of series [2] is common lambsquarters. The note with it: postemergence application, isoxaflutole 105 g/ha; cited from earlier work.
For series [3], the system named is CHEAL - common lambsquarter, Chenopodium album L. Description: 1998 field trial: weed control, common lambsquarters. The class given is in vivo. The note with it: Table 8: field, 60 DAP. The protocol: as §1
Tillage consisted of moldboard plowing in the fall prior to spring disking and field cultivation. Prior to spring cultivation, 320 kg/ha of 46-0-0 fertilizer was applied broadcast. […]
as §3
Corn (ZEAMX) in the 2-leaf or 4-leaf stage was treated with herbicidal compositions consisting of BALANCE (isoxaflutole); BALANCE and DUAL II (metolachlor and the safener benoxacor); BALANCE and SMS; BALANCE and AFS-MTMS; BALANCE, DUAL II and SMS; or BALANCE, DUAL, and AFS-MTMS. The percent injury was determined 6 DAT, 12 DAT, and 30 DAP. […]

Series [4] deals with common ragweed. Particulars: postemergence application, isoxaflutole 105 g/ha; cited from earlier work.
Series [5] relates to velvetleaf. The note with it: postemergence application, isoxaflutole 105 g/ha; cited from earlier work.
The test system of series [6] is Pioneer 3573 corn. Kind of series: Greenhouse corn tolerance (visual injury, corn height) after postemergence isoxaflutole with or without metolachlor/benoxacor plus test adjuvants (Example 1). The class given is in vivo, Zea mays. Particulars: 8 DAT. As for the experimental part:
Various silicone-based compounds were evaluated for ability to prevent herbicidal injury to the corn when used as repellent adjuvants in herbicide formulations. In previous experiments, it was shown that isoxaflutole in combination with metolachlor and benoxacor applied once corn had emerged caused significant corn injury. The basis of this severe injury is the retention and subsequent absorption of isoxaflutole in the foliar tissue of the corn plant, which is exacerbated by the metolachlor herbicide in the composition. Therefore, to address this problem, a number of silicon-based compounds, which were believed to have repellent properties, were evaluated for the ability to prevent injury to corn plants. The compounds evaluated were an aqueous solution of […] sodium methyl siliconate and 67 weight percent water (“SMS”), an aqueous solution of 35.7 weight percent N-(2-aminoethyl)-3-aminopropyltrimethoxysilane, 58.2 weight percent methyltrimethoxysilane, and 6.1 weight percent water (“AFS-MTMS”), methyltrimethoxysilane (“MTMS”), and phosphonate ester alkyl silicon (“PEAS”). These test adjuvants are commercially available from Dow Corning, Midland, Mich. The test adjuvants were applied in combination with isoxaflutole or isoxaflutole in combination with metolachlor and the safener benoxacor, and the ability of the combination to reduce plant injury by inhibiting retention and subsequent absorption of the herbicide was evaluated.
Pioneer 3573 corn seeds (Pioneer 3573, a product of Pioneer Hi-Bred International, Inc., Des Moines, Iowa) were planted 2.54 cm deep, and velvetleaf and barnyardgrass seeds were planted 1.0 cm deep in 875 ml pots containing BACCTO professional greenhouse potting mix (a product of Michigan Peat Co., Houston, Tex.). The seedlings were grown in a greenhouse maintained at 25° C.±2° C. Natural sunlight was supplemented with light from sodium vapor lamps, which provided a total midday light intensity of 1,000 μmol m^−2 s^−1 photosynthetic photon flux at plant height during a 16 hour photoperiod. Plants were watered daily and fertilized weekly with 50 ml of a water soluble fertilizer solution (400 ppm nitrogen, 400 ppm P2O5, and 400 ppm K2O). […]
The herbicide compositions were applied through an 8003 E flat fan nozzle (available from Spraying Systems Co., Wheaton, Ill.) delivering 234 L/ha at a pressure of 172 kPa (25 gallons/acre). Corn tolerance was evaluated 8 days after treatment (DAT) by visually evaluating the plants for bleaching and necrotic symptoms and also by measuring corn height (base of the plant to its crown). […] Corn height was measured in cm and presented as a percent of the non-treated plants, with 0 indicating total reduction in plant height and 100 indicating height equal to the non-treated plants. […]

The subject of series [7] is AMARE redroot pigweed, Amaranthus retroflexus L. Kind of series: 1998 field trial: weed control, redroot pigweed. The class given is in vivo. The note with it: Table 8: field, 60 DAP. The protocol: as §1, §2, §3
Series [8] relates to redroot pigweed. Particulars: postemergence application, isoxaflutole 105 g/ha; cited from earlier work.
Series [9] concerns ZEAMX - corn, Zea mays L. The class given is in vivo. Particulars: Table 8: field; for Corn Height: 40 DAP; for Grain Yield: seed weight adjusted to 15% moisture. The protocol: as §1
Tillage consisted of moldboard plowing in the fall prior to spring disking and field cultivation. Prior to spring cultivation, 320 kg/ha of 46-0-0 fertilizer was applied broadcast. At planting, 140 kg/ha of 6-24-24 fertilizer was applied as a banded treatment 5 cm below and 5 cm beside the corn seeds. Pioneer 37R71 corn was planted on May 11, 1998 at a rate of 62,000 seeds/ha. Each plot was 10.6 m long and consisted of 4 rows spaced 76 cm apart.
The tillage experiments were conducted as a randomized complete block design in a factorial arrangement with three replications. The factors consisted of herbicide application timing and herbicide treatment. Herbicides were applied when the corn was at the 2-leaf and 4-leaf stages. Corn leaf stages are described as the number of visible leaves. Herbicide treatments included isoxaflutole alone (BALANCE) at 105 g/ha and in combination with 1.1 kg/ha of metolachlor/benoxacor (DUAL II). Each of these treatments were applied either alone or with either SMS or AFS-MTMS. Each repellent was used at a rate of 0.5% v/v. Additional treatments not included in the factorial arrangement were an untreated check and a weed-free check. All herbicides were applied with a tractor mounted, compressed-air sprayer calibrated to deliver […] at 207 kPa using 8003 E flat-fan nozzles.
Corn tolerance was evaluated 30 days after planting (DAP) by visually evaluating plants for bleaching and necrotic symptoms and also by measuring corn height (base of plant to the crown) 40 DAP. Weed control by species was visually evaluated 60 DAP. Visual evaluations were based on a scale of 0 (no effect) to 100% (complete weed or crop death). Corn grain yield was determined by harvesting the center two rows of each plot with a plot combine. Seed weight was adjusted to 15% moisture.
Data were subjected to analysis of variance and means separated using Fisher's Protected LSD test at α=0.05. Data were combined over years when treatment and/or application timing by year interactions were not significant α=0.05. […] Corn height and yield results were converted to a percent of the weed-free treatment after separation.
Corn (ZEAMX) in the 2-leaf or 4-leaf stage was treated with herbicidal compositions consisting of BALANCE (isoxaflutole); BALANCE and DUAL II (metolachlor and the safener benoxacor); BALANCE and SMS; BALANCE and AFS-MTMS; BALANCE, DUAL II and SMS; or BALANCE, DUAL, and AFS-MTMS. The percent injury was determined 6 DAT, 12 DAT, and 30 DAP. As weed controls, the annual grasses (ANGR) and common lambsquarters, Chenopodium album L. (CHEAL) were treated with herbicidal compositions consisting of BALANCE; BALANCE and DUAL II; BALANCE and SMS; BALANCE and AFS-MTMS; BALANCE, DUAL II and SMS; or BALANCE, DUAL, and AFS-MTMS. The percent injury for the weed controls was determined 30 DAP.

In series [10] the test system is giant foxtail, Setaria faberi Herrm. (SETFA). Kind of series: 1998 field trial: weed control, giant foxtail. Particulars: Table 8: field, 60 DAP. The class given is in vivo. As for the experimental part: as §1, §2, §3
In series [11] the test system is 2-leaf corn. Kind of series: Greenhouse corn tolerance (visual injury, corn height) after isoxaflutole with or without acetochlor/MON-13900 plus adjuvants (Example 3). The class given is in vivo, Zea mays. The note with it: Table 9: greenhouse, 8 DAT, isoxaflutole 105 g/ha. As for the experimental part:
This example was performed as in Example 1, except that adjuvants SMS and AFS-MTMS were added to an isoxaflutole tank-mixture that contained an acetochlor herbicide and the safener MON-13900. As in Example 1, the herbicide applications were made to 2-leaf corn, and the herbicide treatments consisted of isoxaflutole at 105 g/ha and isoxaflutole tank-mixed with 1.8 kg/ha of acetochlor/MON-13900 applied either alone or in combination with either NIS at 0.25% (v/v), SMS at 0.5% (v/v), or AFS-MTMS at 0.5% (v/v).
The herbicide compositions were applied through an 8003 E flat fan nozzle delivering 234 L/ha at a pressure of 172 kPa. Corn tolerance was evaluated 8 DAT by visually evaluating the plants for bleaching and necrotic symptoms and also by measuring corn height (base of the plant to its crown). Visual corn injury ratings were based on a scale from 0 to 100, with 0 indicating no effect and 100 indicating plant death. Corn height was measured in cm and presented as a percent of the non-treated plants, with 0 indicating total reduction in plant height and 100 indicating height equal to the non-treated plants. All experiments were conducted twice as completely randomized designs with four replications. Data were subjected to analysis of variance and means separated using Fisher's Protected LSD test at a+0.05. […]

Setting [12] is: Table 3: 2-leaf corn, isoxaflutole 105 g/ha, adjuvant at the rate in the Rate column (0.5% v/v).

As to `CS(=O)(=O)c1cc(C(F)(F)F)ccc1C(=O)c1cnoc1C1CC1` [Isoxaflutole, 5-cyclopropyl isoxazol-4-4-yl-2-mesyl-trifluoromethylphenyl ketone], the “Weed Control, ABUTH” value came to 99% in [1] (2-leaf application) and 100% in series [1] (4-leaf application). Further, the “control of common lambsquarters” value in [2] is listed as “greater than 90%”. Besides, the entries for the “Weed Control, CHEAL” value in series [3] (2-leaf application) and in series [3] (4-leaf application) were 95% and 96%, respectively. In addition, in series [4], the “control of common ragweed” value was “greater than 90%”. In addition, the control of velvetleaf entry in [5] is recorded as “greater than 90%”. The “Height, Isoxaflutole” value in [6] (setting [12]) was 100 % of control; in series [11] it was 99 % of control. Also, the “Injury, Isoxaflutole” value in series [6] (setting [12]) is recorded as 2%; in series [11] (NIS 0.25% v/v, SMS or AFS-MTMS 0.5% v/v) it was 0%. Moreover, in series [6] (greenhouse, 2-leaf corn, adjuvant rate 0%, isoxaflutole 105 g/ha, metolachlor/benoxacor 1.1 kg/ha, scale 0 no effect to 100 plant death), the “% injury to corn” value is reported as 2%. The “Corn Height as a Percent of Control” value in series [6] (greenhouse, adjuvant rate 0%) is recorded as 100 % of control height. In addition, the “Weed Control, AMARE” value in [7] (2-leaf application) was 98%; in series [7] (4-leaf application) it was 100%. In addition, the “control of redroot pigweed” value in [8] is on record as “greater than 90%”. The “Corn Injury” value in [9] (2-leaf application, 30 DAP (21 days after application), isoxaflutole 105 g/ha, metolachlor 1121 g/ha, adjuvants 0.5% v/v) is recorded as 0%; in series [9] (4-leaf application, 30 DAP (15 days after application)), 10%. Further, the “Corn Height” value in series [9] (2-leaf application) and in [9] (4-leaf application) was 61 cm throughout. Further, the “Grain Yield” value in series [9] (2-leaf application) came out at 10420 kg/ha; in series [9] (4-leaf application), 9995 kg/ha. For the same compound, the “Weed Control, SETFA” value is listed as 73% in series [10] (2-leaf application) and 70% in series [10] (4-leaf application).
